T/C data for 16 compounds are collected here from PubChem BioAssay AID248 (DTP/NCI, 2004).

Inconclusive results and toxic doses are left out. Peptide text beside a SMILES is read from it. * marks the point of attachment. Cbz = O=C(OCc1ccccc1)*; OBn = c1ccc(CO*)cc1; Bn = c1ccc(C*)cc1

For the experiment, the system named is L1210 leukemia ip in BDF1 mice, survival T/C. The experiment in a line: NCI In Vivo Anticancer Drug Screen. Data for tumor model L1210 Leukemia (intraperitoneal) in B6D2F1 (BDF1) mice. Particulars: endpoint: mean survival time, higher = longer survival. The gist of the method: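 Read-out is survival time, reported as the treated-group measurement over the vehicle-control measurement.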

[1] abbreviates: dose: 50.0 mg/kg/injection, schedule: Q01DX009 (ip), vehicle: Klucel (hydroxypropylcellulose) (HPC).
The mark [2] stands for this setting: dose: 50.0 mg/kg/injection, schedule: Q01DX009 (ip), vehicle: saline with Tween-80.
[3] abbreviates: dose: 100.0 mg/kg/injection, schedule: Q01DX009 (ip), vehicle: saline with Tween-80.
[4] abbreviates: dose: 100.0 mg/kg/injection, schedule: Q04DX003 (ip), vehicle: saline with Tween-80.
Where [5] appears, read: dose: 200.0 mg/kg/injection, schedule: Q01DX009 (ip), vehicle: saline with Tween-80.
Where [6] appears, read: dose: 200.0 mg/kg/injection, schedule: Q04DX003 (ip), vehicle: saline with Tween-80.
The mark [7] stands for this setting: dose: 400.0 mg/kg/injection, schedule: Q04DX003 (ip), vehicle: saline with Tween-80.
Setting [8] is: dose: 100.0 mg/kg/injection, schedule: Q04DX003 (ip), vehicle: saline.
The mark [9] stands for this setting: dose: 200.0 mg/kg/injection, schedule: Q04DX003 (ip), vehicle: saline.
Where [10] appears, read: dose: 400.0 mg/kg/injection, schedule: Q04DX003 (ip), vehicle: saline.
The mark [11] stands for this setting: dose: 400.0 mg/kg/injection, schedule: Q01DX009 (ip), vehicle: saline with Tween-80.
The mark [12] stands for this setting: dose: 100.0 mg/kg/injection, schedule: Q04DX003 (ip), vehicle: Klucel (hydroxypropylcellulose) (HPC).
Where [13] appears, read: dose: 25.0 mg/kg/injection, schedule: Q01DX009 (ip), vehicle: Klucel (hydroxypropylcellulose) (HPC).
The mark [14] stands for this setting: dose: 100.0 mg/kg/injection, schedule: Q01DX009 (ip), vehicle: Klucel (hydroxypropylcellulose) (HPC).

Take `Cc1cc(C)c(C(Cl)(Cl)Cl)c(C)c1Cl`: the T/C (dose: 22.0 mg/kg/injection, schedule: Q01DX009 (ip), vehicle: saline with Tween-80) is 119 % of control; the T/C (dose: 33.0 mg/kg/injection, schedule: Q01DX009 (ip), vehicle: Klucel (hydroxypropylcellulose) (HPC)) is 113 % of control; the T/C (dose: 33.0 mg/kg/injection, schedule: Q01DX009 (ip), vehicle: saline with Tween-80) is 112 % of control; the T/C under setting [1] is 100 % of control; the T/C under setting [2] is 118 % of control; the T/C (dose: 75.0 mg/kg/injection, schedule: Q01DX009 (ip), vehicle: Klucel (hydroxypropylcellulose) (HPC)) is 107 % of control. Further, the T/C runs as follows: (dose: 75.0 mg/kg/injection, schedule: Q01DX009 (ip), vehicle: saline with Tween-80) 113 % of control; (dose: 100.0 mg/kg/injection, schedule: Q01DX001 (ip), vehicle: carboxymethylcellulose (CMC)) 121 % of control; under setting [3], 121 % of control; under setting [4], 120 % of control; (dose: 200.0 mg/kg/injection, schedule: Q01DX001 (ip), vehicle: carboxymethylcellulose (CMC)) 118 % of control; under setting [5], 103 % of control. In addition, the T/C is 108 % of control under setting [6] and 121 % of control (dose: 400.0 mg/kg/injection, schedule: Q01DX001 (ip), vehicle: carboxymethylcellulose (CMC)).
Consider `CCCC(C)OC(=O)Nc1cccc(OC(=O)NC)c1` (stereo not drawn), for which the T/C was 102 % of control under setting [4], 98 % of control under setting [6] and 101 % of control under setting [7].
`O=C1CCC(N2C(=O)C3C4C=CC(C4)C3C2=O)C(=O)N1` (stereo not drawn): the T/C by setting is: under setting [8], 101 % of control; under setting [9], 101 % of control; under setting [10], 97 % of control.
Turning to `NC1=NC(=O)CS1`, the T/C is, setting by setting: (dose: 100.0 mg/kg/injection, schedule: Q01DX001 (ip), vehicle: saline with Tween-80) 92 % of control; under setting [3], 105 % of control; under setting [8], 86 % of control; (dose: 200.0 mg/kg/injection, schedule: Q01DX001 (ip), vehicle: saline with Tween-80) 103 % of control; under setting [5], 107 % of control; under setting [9], 93 % of control. The T/C is, setting by setting: (dose: 400.0 mg/kg/injection, schedule: Q01DX001 (ip), vehicle: saline with Tween-80) 95 % of control; under setting [11], 105 % of control; under setting [10], 86 % of control.
Consider `NC(N)=Nc1ccccc1`, for which the T/C by setting is: under setting [2], 107 % of control; under setting [3], 101 % of control; under setting [8], 101 % of control; under setting [5], 104 % of control; under setting [9], 115 % of control.
As for `O=C1NC(c2ccc3ccccc3c2)Nc2ccccc21` (stereo not drawn), the T/C reads like this: under setting [12], 103 % of control; (dose: 200.0 mg/kg/injection, schedule: Q04DX003 (ip), vehicle: Klucel (hydroxypropylcellulose) (HPC)) 107 % of control; (dose: 400.0 mg/kg/injection, schedule: Q04DX003 (ip), vehicle: Klucel (hydroxypropylcellulose) (HPC)) 105 % of control.
`Cc1ccc(Nc2c3ccccc3nc3ccccc23)cc1C`: the T/C under setting [13] is 94 % of control; the T/C under setting [1] is 91 % of control; the T/C under setting [14] was 102 % of control; the T/C (dose: 100.0 mg/kg/injection, schedule: Q04DX002 (ip), vehicle: Klucel (hydroxypropylcellulose) (HPC)) is 100 % of control.
Turning to `C=C1C(=O)N(C)CCC1(O)C(CC)C(=O)OC` (stereo not drawn), the T/C is, setting by setting: (dose: 6.25 mg/kg/injection, schedule: Q01DX001 (ip), vehicle: saline) 98 % of control; (dose: 12.5 mg/kg/injection, schedule: Q01DX001 (ip), vehicle: saline) 98 % of control; (dose: 25.0 mg/kg/injection, schedule: Q01DX001 (ip), vehicle: saline) 98 % of control; (dose: 50.0 mg/kg/injection, schedule: Q01DX001 (ip), vehicle: saline) 98 % of control.
On to `CN(CCN(C)P(=O)(N1CC1)N1CC1)P(=O)(N1CC1)N1CC1`, for which the T/C is 87 % of control (dose: 0.62 mg/kg/injection, schedule: Q01DX Z (ip), vehicle: saline); 90 % of control (dose: 1.25 mg/kg/injection, schedule: Q01DX Z (ip), vehicle: saline); 92 % of control (dose: 2.5 mg/kg/injection, schedule: Q01DX Z (ip), vehicle: saline); 108 % of control (dose: 5.0 mg/kg/injection, schedule: Q01DX Z (ip), vehicle: saline); 156 % of control (dose: 20.0 mg/kg/injection, schedule: Q01DX Z (ip), vehicle: saline).
For `CC(C)CC/C=C/c1ccccc1`, the T/C (dose: 100.0 mg/kg/injection, schedule: Q04DX002 (ip), vehicle: saline with Tween-80) was 92 % of control; the T/C (dose: 200.0 mg/kg/injection, schedule: Q04DX002 (ip), vehicle: saline with Tween-80) was 104 % of control; the T/C (dose: 400.0 mg/kg/injection, schedule: Q04DX002 (ip), vehicle: saline with Tween-80) is 92 % of control.
`CC(C)CC(NC(=O)C(CSCc1ccccc1)NC(=O)OCc1ccccc1)C(=O)OCc1ccccc1` (stereo not drawn) (Cbz-Cys(Bn)-Leu-OBn; configuration not given here): the T/C runs as follows: (dose: 100.0 mg/kg/injection, schedule: Q04DX003 (ip), vehicle: gum acacia) 93 % of control; (dose: 200.0 mg/kg/injection, schedule: Q04DX003 (ip), vehicle: gum acacia) 93 % of control; (dose: 400.0 mg/kg/injection, schedule: Q04DX003 (ip), vehicle: gum acacia) 91 % of control.
For `CC(=O)OC1Cc2ccccc21` (stereo not drawn), the T/C runs as follows: under setting [3], 96 % of control; under setting [4], 95 % of control; under setting [5], 109 % of control; under setting [6], 96 % of control; under setting [11], 100 % of control; under setting [7], 98 % of control.
Regarding `CCCCCCOP(=O)(CCCCCC)OCCCCCC`, the T/C is, setting by setting: (dose: 13.3 mg/kg/injection, schedule: Q01DX Z (ip), vehicle: methylcellulose (MC)) 96 % of control; (dose: 20.0 mg/kg/injection, schedule: Q01DX Z (ip), vehicle: methylcellulose (MC)) 102 % of control; under setting [13], 93 % of control; (dose: 25.0 mg/kg/injection, schedule: Q04DX003 (ip), vehicle: Klucel (hydroxypropylcellulose) (HPC)) 94 % of control; (dose: 30.0 mg/kg/injection, schedule: Q01DX Z (ip), vehicle: methylcellulose (MC)) 95 % of control; under setting [1], 101 % of control. For the same compound, the T/C was 89 % of control (dose: 50.0 mg/kg/injection, schedule: Q04DX003 (ip), vehicle: Klucel (hydroxypropylcellulose) (HPC)); 98 % of control under setting [14]; 103 % of control under setting [12].
For `CC(=O)OC1CCC2(C)C(C1)C(OC(C)=O)CC1C3CCC(c4cccc(=O)o4)C3(C)CCC12` (stereo not drawn), the T/C runs as follows: (dose: 100.0 mg/kg/injection, schedule: Q01DX001 (sc), vehicle: steriod suspending solution) 101 % of control; (dose: 200.0 mg/kg/injection, schedule: Q01DX001 (sc), vehicle: steriod suspending solution) 102 % of control; (dose: 400.0 mg/kg/injection, schedule: Q01DX001 (sc), vehicle: steriod suspending solution) 112 % of control.
As to `O=C(NC1CCCCC1)C(=S)NC1CCCCC1`, the T/C under setting [14] is 93 % of control; the T/C (dose: 200.0 mg/kg/injection, schedule: Q01DX009 (ip), vehicle: Klucel (hydroxypropylcellulose) (HPC)) was 101 % of control; the T/C (dose: 400.0 mg/kg/injection, schedule: Q01DX009 (ip), vehicle: Klucel (hydroxypropylcellulose) (HPC)) was 98 % of control.
As for `CC1=CCC(C/C=N/N=C/CC2CC=C(C)C2(C)C)C1(C)C` (stereo not drawn), the T/C reads like this: (dose: 100.0 mg/kg/injection, schedule: Q01DX009 (sc), vehicle: olive oil, sesame oil, peanut oil) 100 % of control; (dose: 100.0 mg/kg/injection, schedule: Q04DX003 (sc), vehicle: olive oil, sesame oil, peanut oil) 97 % of control; (dose: 200.0 mg/kg/injection, schedule: Q01DX009 (sc), vehicle: olive oil, sesame oil, peanut oil) 100 % of control; (dose: 200.0 mg/kg/injection, schedule: Q04DX003 (sc), vehicle: olive oil, sesame oil, peanut oil) 101 % of control; (dose: 400.0 mg/kg/injection, schedule: Q01DX009 (sc), vehicle: olive oil, sesame oil, peanut oil) 98 % of control; (dose: 400.0 mg/kg/injection, schedule: Q04DX003 (sc), vehicle: olive oil, sesame oil, peanut oil) 106 % of control.
